Results: patent publication US20040110846A1, “Perylenequinones for use with immunotherapy agents” (priority 2004, published 2004)

How the values were obtained:
EMT6 murine mastocytoma = experiment: Sonosensitizing potential: LD50 in EMT6 cells in vitro for a fixed dose of ultrasound; format: cell-based
Description: (§1) As used herein, “photopotentiation factor” refers to the property of the compound(s) to exert light- or sound-mediated toxicity in excess of its (their) inherent unactivated toxicity. In a preferred embodiment of the invention, the activation factor may be calculated as the ratio of the LD50 of cells treated without activation to the LD50 of the cells treated with an activated compound (drug LD50 divided by activated drug LD50). Where the term “LD50” has been used above, the term “IC50” may be substituted, to address the bioassays that concern metabolic activity rather than the endpoint of lethality, loss of reproductive capability, or clonogenic death. The relative photoactivation efficiency of a compound may also be determined using a clonogenic assay, an assay that is well known to those skilled in the art.
(§2) for a fixed dose of light or ultrasound

EMT6 murine = experiment: Photosensitizing potential: LD50 in EMT6 cells in vitro for a fixed dose of light; format: cell-based
Description: as §1, §2

[1] = Absorption (extinction coefficient) in the red spectral region compared with HB; format: physicochemical
Description: A hypocrellin derivative of the present invention also includes 2-butylamino-2-demethoxy-hypocrellin B (2-BA-2-DMHB). […] Compared with its parent compound HB, its absorption bands extend toward longer wavelengths. The extinction coefficient at 583 nm was 2.5-fold as much as HB at 548 nm, and at 621 nm was over 3.8-fold as much as HB at 580 nm.

2-(N,N-dimethyl-amino) propylamine-Hypocrellin B [HBDD-R1]
Sonosensitizing Potential (Molar Concentration which exerts LD50) (EMT6 murine mastocytoma): 1.0 mM

2-butylamino-2-demethoxy-Hypocrellin B [DMHBb]
Photosensitizing Potential (Molar Concentration which exerts LD50) (EMT6 murine): 0.1 µM
Sonosensitizing Potential (Molar Concentration which exerts LD50) (EMT6 murine mastocytoma): 0.1 mM
extinction coefficient at 583 nm relative to HB at 548 nm ([1]; 583 nm vs HB at 548 nm): 2.5 fold
extinction coefficient at 621 nm relative to HB at 580 nm ([1]; 621 nm vs HB at 580 nm): over 3.8 fold

2-morpholino-ethylaminated HB [HBAM-R1]
Photosensitizing Potential (Molar Concentration which exerts LD50) (EMT6 murine): 4.0 µM
Sonosensitizing Potential (Molar Concentration which exerts LD50) (EMT6 murine mastocytoma): None

Demethylated-HB [DMHBa]
Photosensitizing Potential (Molar Concentration which exerts LD50) (EMT6 murine): 3.0 µM
Sonosensitizing Potential (Molar Concentration which exerts LD50) (EMT6 murine mastocytoma): 1.0 mM

Ethylenediamne-Hypocrellin B [HBED-R2]
Photosensitizing Potential (Molar Concentration which exerts LD50) (EMT6 murine): 4.0 µM
Sonosensitizing Potential (Molar Concentration which exerts LD50) (EMT6 murine mastocytoma): None

Hypocrellin A [HA, reference compound]
Photosensitizing Potential (Molar Concentration which exerts LD50) (EMT6 murine): 4.0 µM
Sonosensitizing Potential (Molar Concentration which exerts LD50) (EMT6 murine mastocytoma): None

Methylamine-Hypocrellin B [HBMA-IV]
Photosensitizing Potential (Molar Concentration which exerts LD50) (EMT6 murine): 1.0 µM
Sonosensitizing Potential (Molar Concentration which exerts LD50) (EMT6 murine mastocytoma): None
